Data taken from paper PMC8165021 (Bioorganic & medicinal chemistry letters, 2021).
Values belong to the compound of their own block, whether it stands above or below them.

How the values were obtained:
[1] = molecular target: T1, D3R (Homo sapiens, UniProt P35462); assay: Radioligand binding at D3R; conditions: for D3R selectivities versus the other dopamine receptors tested: versus D1R, D2R, D4R, D5R
[2] = molecular target: T1, D3R; conditions: flexible n-butyl linker compound from previous study; ref [19]; cited from earlier work

T1 sequence (P35462 whole entry): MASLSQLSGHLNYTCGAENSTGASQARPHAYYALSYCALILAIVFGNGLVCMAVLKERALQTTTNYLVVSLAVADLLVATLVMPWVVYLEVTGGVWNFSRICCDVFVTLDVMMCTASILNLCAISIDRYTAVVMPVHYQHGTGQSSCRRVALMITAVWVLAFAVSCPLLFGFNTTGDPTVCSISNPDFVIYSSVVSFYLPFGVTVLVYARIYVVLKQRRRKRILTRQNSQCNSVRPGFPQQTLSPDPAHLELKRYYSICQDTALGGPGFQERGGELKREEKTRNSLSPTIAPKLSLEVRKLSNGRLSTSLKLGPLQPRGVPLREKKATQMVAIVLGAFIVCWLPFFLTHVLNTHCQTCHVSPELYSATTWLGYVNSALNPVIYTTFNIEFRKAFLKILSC

D3R selectivity versus D4R ([1]; ratio of Ki values): > 100 fold
SMILES: COc1cc2c(cc1O)CN(Cc1ccccc1CNC(=O)c1cccc(C#N)c1)CC2 [5i]

D3R selectivities versus the other dopamine receptors tested [1]: 15- to 420 fold
SMILES: COc1cc2c(cc1OC)CN(Cc1ccccc1CNC(=O)c1cccc(C#N)c1)CC2 [5s]

D3R selectivities versus the other dopamine receptors tested [1]: 15- to 420 fold
SMILES: COc1cc2c(cc1OC)CN(Cc1ccccc1CNC(=O)c1ccc(C#N)cc1)CC2 [5t]

D3R selectivity versus D1R, D2R and D4R [1]: < 50 fold
SMILES: O=C(NCc1ccccc1CN1CCc2cc(O)c(O)cc2C1)c1cccc(Br)c1 [6a]

SMILES: COc1cc2c(cc1O)CN(CCCCNC(=O)c1ccc(C#N)cc1)CC2 [compound 1]
selectivity for D3R over σ2R [2]: good selectivity
